# Laboratory results taken from patent publication US20260191835A1, “COMBINATIONS COMPRISING A MENIN-MLL INHIBITOR AND AT LEAST ONE OTHER THERAPEUTIC AGENT” (JANSSEN PHARMACEUTICA NV, priority 2022, published 2026).
# Test system: OCI-AML3 cells
# Assay: In vitro proliferation (Cell Titer Glo, 6 days) of Compound 51 in combination with idarubicin or decitabine, OCI-AML3
# Type: cell-based, human
# Details: for combination effect on proliferation (cytotoxicity): OCI-AML3 (NPM1c)
# Protocol: 3) In Vitro Proliferation—Menin-MLL Inhibitor in Combination with FLT3 Inhibitor (Gilteritinib or Midostaurin), DNA Intercalating Agent (Idarubicin) or Hypomethylating Agent (Decitabine)
# The effect of Compound 51 in combination with gilteritinib, midostaurin, idarubicin or decitabine was determined in proliferation assays.
# AML cell lines MOLM-13, OCI-AML3 and MV4-11 were purchased from DSMZ. MOLM-13 were grown in RPMI medium supplemented with 10% Fetal Bovine Serum (FBS) and 1% penicillin/streptomycin. MV4-11 cells were grown in IMDM medium supplemented with 10% FBS and 1% penicillin/streptomycin. OCI-AML3 cells were cultured in 80-90% alpha-MEM (with or without ribo- and deoxyribonucleosides)+10-20% FBS. All cell lines were cultured at 37° C. in 5% CO2 atmosphere.
# AML cell lines (10-20×10^3 cells/well) were seeded in 96-well plates and grown for 6 days in serum (10%)-containing medium in the presence or absence of inhibitors at the indicated concentrations. Proliferation was analyzed by means of a Cell Titer Glo assay using the […] (Promega, Madison, WI, USA), according to the manufacturer's instructions. Data are mean with standard deviation from two to four independent experiments in technical triplicates.
# R-based Biochemically Intuitive Generalized Loewe (BIGL) model implemented with a highest single agent (HSA) null model. Specifically, the BIGL methodology was applied to calculate drug-drug interactions (Van der Borght, K., Tourny, A., Bagdziunas, R. et al. BIGL: Biochemically Intuitive Generalized Loewe null model for prediction of the expected combined effect compatible with partial agonism and antagonism. Sci Rep 7, 17935 (2017); Thas, O., Tourny, A., Verbist, B., Hawinkel, S., Nazarov, M., Mutambanengwe, K., & Bijnens, L. Statistical detection of synergy: New methods and a comparative study. Pharmaceutical Statistics (2021)).
# Synergy matrix results of the BIGL analysis of the cell line data with HSA as mean model calculated on the basis of the cellular metabolic activity using Cell Titer-Glo assay. Bootstrap confidence intervals are indicated. Effect sizes and their confidence intervals are shown. […] No significant average effect if zero is included in the interval.
compound,measurement,setting,value
CC(=O)N1CCC(CN2CC[C@@H](Cc3cn(-c4ccc(F)cc4C(=O)N(C)C(C)C)c4cncc(C)c34)C2)CC1 [Compound 51],"Effect size (BIGL, HSA null model), OCI-AML3 Cell Proliferation",Compound 51 0.001 μm + Decitabine 0.0015 μM,−0.02
same,"Effect size (BIGL, HSA null model), OCI-AML3 Cell Proliferation",Compound 51 0.001 μm + Decitabine 0.015 μM,−0.06
same,"Effect size (BIGL, HSA null model), OCI-AML3 Cell Proliferation",Compound 51 0.001 μm + Decitabine 0.35 μM,−0.04
same,"Effect size (BIGL, HSA null model), OCI-AML3 Cell Proliferation",Compound 51 0.001 μm + Decitabine 3 μM,0.01
same,"Effect size (BIGL, HSA null model), OCI-AML3 Cell Proliferation",Compound 51 0.001 μm + Decitabine 3.5 μM,−0.02
same,"Effect size (BIGL, HSA null model), OCI-AML3 Cell Proliferation",Compound 51 0.001 μm + Idarubicin 0.0005 μM,−0.02
same,"Effect size (BIGL, HSA null model), OCI-AML3 Cell Proliferation",Compound 51 0.001 μm + Idarubicin 0.00625 μM,0
same,"Effect size (BIGL, HSA null model), OCI-AML3 Cell Proliferation",Compound 51 0.001 μm + Idarubicin 0.0125 μM,0.02
same,"Effect size (BIGL, HSA null model), OCI-AML3 Cell Proliferation",Compound 51 0.001 μm + Idarubicin 0.025 μM,0
same,"Effect size (BIGL, HSA null model), OCI-AML3 Cell Proliferation",Compound 51 0.001 μm + Idarubicin 0.05 μM,−0.01
same,"Effect size (BIGL, HSA null model), OCI-AML3 Cell Proliferation",Compound 51 0.001 μm + Idarubicin 0.5 μM,−0.01
same,"Effect size (BIGL, HSA null model), OCI-AML3 Cell Proliferation",Compound 51 0.01 μm + Decitabine 0.0015 μM,−0.01
same,"Effect size (BIGL, HSA null model), OCI-AML3 Cell Proliferation",Compound 51 0.01 μm + Decitabine 0.015 μM,−0.1
same,"Effect size (BIGL, HSA null model), OCI-AML3 Cell Proliferation",Compound 51 0.01 μm + Decitabine 0.35 μM,−0.07
same,"Effect size (BIGL, HSA null model), OCI-AML3 Cell Proliferation",Compound 51 0.01 μm + Decitabine 3 μM,0
same,"Effect size (BIGL, HSA null model), OCI-AML3 Cell Proliferation",Compound 51 0.01 μm + Decitabine 3.5 μM,−0.02
same,"Effect size (BIGL, HSA null model), OCI-AML3 Cell Proliferation",Compound 51 0.01 μm + Idarubicin 0.0005 μM,0.05
same,"Effect size (BIGL, HSA null model), OCI-AML3 Cell Proliferation",Compound 51 0.01 μm + Idarubicin 0.00625 μM,−0.02
same,"Effect size (BIGL, HSA null model), OCI-AML3 Cell Proliferation",Compound 51 0.01 μm + Idarubicin 0.0125 μM,0.01
same,"Effect size (BIGL, HSA null model), OCI-AML3 Cell Proliferation",Compound 51 0.01 μm + Idarubicin 0.025 μM,0
same,"Effect size (BIGL, HSA null model), OCI-AML3 Cell Proliferation",Compound 51 0.01 μm + Idarubicin 0.05 μM,−0.01
same,"Effect size (BIGL, HSA null model), OCI-AML3 Cell Proliferation",Compound 51 0.01 μm + Idarubicin 0.5 μM,−0.01
same,"Effect size (BIGL, HSA null model), OCI-AML3 Cell Proliferation",Compound 51 0.05 μm + Decitabine 0.0015 μM,0
same,"Effect size (BIGL, HSA null model), OCI-AML3 Cell Proliferation",Compound 51 0.05 μm + Decitabine 0.015 μM,0
same,"Effect size (BIGL, HSA null model), OCI-AML3 Cell Proliferation",Compound 51 0.05 μm + Decitabine 0.35 μM,−0.1
same,"Effect size (BIGL, HSA null model), OCI-AML3 Cell Proliferation",Compound 51 0.05 μm + Decitabine 3 μM,0
same,"Effect size (BIGL, HSA null model), OCI-AML3 Cell Proliferation",Compound 51 0.05 μm + Decitabine 3.5 μM,−0.03
same,"Effect size (BIGL, HSA null model), OCI-AML3 Cell Proliferation",Compound 51 0.05 μm + Idarubicin 0.0005 μM,0.04
same,"Effect size (BIGL, HSA null model), OCI-AML3 Cell Proliferation",Compound 51 0.05 μm + Idarubicin 0.00625 μM,−0.04
same,"Effect size (BIGL, HSA null model), OCI-AML3 Cell Proliferation",Compound 51 0.05 μm + Idarubicin 0.0125 μM,0
same,"Effect size (BIGL, HSA null model), OCI-AML3 Cell Proliferation",Compound 51 0.05 μm + Idarubicin 0.025 μM,−0.01
same,"Effect size (BIGL, HSA null model), OCI-AML3 Cell Proliferation",Compound 51 0.05 μm + Idarubicin 0.05 μM,−0.01
same,"Effect size (BIGL, HSA null model), OCI-AML3 Cell Proliferation",Compound 51 0.05 μm + Idarubicin 0.5 μM,−0.01
same,"Effect size (BIGL, HSA null model), OCI-AML3 Cell Proliferation",Compound 51 0.1 μm + Decitabine 0.0015 μM,0.01
same,"Effect size (BIGL, HSA null model), OCI-AML3 Cell Proliferation",Compound 51 0.1 μm + Decitabine 0.015 μM,0.08
same,"Effect size (BIGL, HSA null model), OCI-AML3 Cell Proliferation",Compound 51 0.1 μm + Decitabine 0.35 μM,−0.07
same,"Effect size (BIGL, HSA null model), OCI-AML3 Cell Proliferation",Compound 51 0.1 μm + Decitabine 3 μM,0
same,"Effect size (BIGL, HSA null model), OCI-AML3 Cell Proliferation",Compound 51 0.1 μm + Decitabine 3.5 μM,−0.02
same,"Effect size (BIGL, HSA null model), OCI-AML3 Cell Proliferation",Compound 51 0.1 μm + Idarubicin 0.0005 μM,0.01
same,"Effect size (BIGL, HSA null model), OCI-AML3 Cell Proliferation",Compound 51 0.1 μm + Idarubicin 0.00625 μM,−0.05
same,"Effect size (BIGL, HSA null model), OCI-AML3 Cell Proliferation",Compound 51 0.1 μm + Idarubicin 0.0125 μM,0
same,"Effect size (BIGL, HSA null model), OCI-AML3 Cell Proliferation",Compound 51 0.1 μm + Idarubicin 0.025 μM,0
same,"Effect size (BIGL, HSA null model), OCI-AML3 Cell Proliferation",Compound 51 0.1 μm + Idarubicin 0.05 μM,−0.01
same,"Effect size (BIGL, HSA null model), OCI-AML3 Cell Proliferation",Compound 51 0.1 μm + Idarubicin 0.5 μM,−0.01
same,"Effect size (BIGL, HSA null model), OCI-AML3 Cell Proliferation",Compound 51 1 μm + Decitabine 0.0015 μM,0.02
same,"Effect size (BIGL, HSA null model), OCI-AML3 Cell Proliferation",Compound 51 1 μm + Decitabine 0.015 μM,0.13
same,"Effect size (BIGL, HSA null model), OCI-AML3 Cell Proliferation",Compound 51 1 μm + Decitabine 0.35 μM,0.01
same,"Effect size (BIGL, HSA null model), OCI-AML3 Cell Proliferation",Compound 51 1 μm + Decitabine 3 μM,0
same,"Effect size (BIGL, HSA null model), OCI-AML3 Cell Proliferation",Compound 51 1 μm + Decitabine 3.5 μM,−0.02
same,"Effect size (BIGL, HSA null model), OCI-AML3 Cell Proliferation",Compound 51 1 μm + Idarubicin 0.0005 μM,−0.03
same,"Effect size (BIGL, HSA null model), OCI-AML3 Cell Proliferation",Compound 51 1 μm + Idarubicin 0.00625 μM,−0.06
same,"Effect size (BIGL, HSA null model), OCI-AML3 Cell Proliferation",Compound 51 1 μm + Idarubicin 0.0125 μM,0
same,"Effect size (BIGL, HSA null model), OCI-AML3 Cell Proliferation",Compound 51 1 μm + Idarubicin 0.025 μM,−0.01
same,"Effect size (BIGL, HSA null model), OCI-AML3 Cell Proliferation",Compound 51 1 μm + Idarubicin 0.05 μM,−0.01
same,"Effect size (BIGL, HSA null model), OCI-AML3 Cell Proliferation",Compound 51 1 μm + Idarubicin 0.5 μM,−0.01
same,"Effect size (BIGL, HSA null model), OCI-AML3 Cell Proliferation",Compound 51 10 μm + Decitabine 0.0015 μM,0.01
same,"Effect size (BIGL, HSA null model), OCI-AML3 Cell Proliferation",Compound 51 10 μm + Decitabine 0.015 μM,0.1
same,"Effect size (BIGL, HSA null model), OCI-AML3 Cell Proliferation",Compound 51 10 μm + Decitabine 0.35 μM,−0.02
same,"Effect size (BIGL, HSA null model), OCI-AML3 Cell Proliferation",Compound 51 10 μm + Decitabine 3 μM,0.01
same,"Effect size (BIGL, HSA null model), OCI-AML3 Cell Proliferation",Compound 51 10 μm + Decitabine 3.5 μM,−0.01
same,"Effect size (BIGL, HSA null model), OCI-AML3 Cell Proliferation",Compound 51 10 μm + Idarubicin 0.0005 μM,0.04
same,"Effect size (BIGL, HSA null model), OCI-AML3 Cell Proliferation",Compound 51 10 μm + Idarubicin 0.00625 μM,−0.06
same,"Effect size (BIGL, HSA null model), OCI-AML3 Cell Proliferation",Compound 51 10 μm + Idarubicin 0.0125 μM,0
same,"Effect size (BIGL, HSA null model), OCI-AML3 Cell Proliferation",Compound 51 10 μm + Idarubicin 0.025 μM,−0.01
same,"Effect size (BIGL, HSA null model), OCI-AML3 Cell Proliferation",Compound 51 10 μm + Idarubicin 0.05 μM,−0.01
same,"Effect size (BIGL, HSA null model), OCI-AML3 Cell Proliferation",Compound 51 10 μm + Idarubicin 0.5 μM,−0.01
same,combination effect on proliferation (cytotoxicity),"in combination with decitabine, 6-day CellTiter-Glo matrix",not antagonistically cytotoxic
same,combination effect on proliferation (cytotoxicity),"in combination with idarubicin, 6-day Cell Titer-Glo matrix",not antagonistically cytotoxic
